Literature values in article PMC4393105, “tRNA^Glu Increases the Affinity of Glutamyl-tRNA Synthetase for Its Inhibitor Glutamyl-Sulfamoyl-Adenosine, an Analogue of the Aminoacylation Reaction Intermediate Glutamyl-AMP: Mechanistic and Evolutionary Implications” (PLoS ONE, 2015).
pKd: −log10 of the molar value. Read-outs that look alike come from different tables or passages of the source.

Columns and labels:
PheRS from baker’s yeast = details: read-out: K d aa-AMP aaRS, cited from earlier work
[1] = target: ThrRS from yeast mitochodria; set-up: method as in PMID 22773845; details: read-out: K d aa-AMP aaRS; cited from earlier work
IleRS from E. coli = system: IleRS from E. coli; set-up: method as in earlier work; details: reviewed by Fersht, 1998, 48; cited from earlier work

Nc1ncnc2c1ncn2[C@@H]1O[C@H](COP(=O)(O)OC(=O)[C@@H](N)Cc2ccccc2)[C@@H](O)[C@H]1O [Phe-AMP]
pKd (PheRS from baker’s yeast; cognate aa-AMP): 8.30

Nc1ncnc2c1ncn2C1OC(COS(=O)(=O)NC(=O)[C@@H](N)CO)[C@@H](O)[C@H]1O (some centres unmarked) [Ser-AMS, Seryl-sulfamoyl-adenosine]
pKd [1]: 6.35

C[C@@H](O)[C@H](N)C(=O)NS(=O)(=O)OC[C@@H]1O[C@H](n2cnc3c(N)ncnc32)[C@@H](O)[C@H]1O [Thr-AMS, Threonyl-sulfamoyl-adenosine]
pKd [1]: 8.35

Nc1ncnc2c1ncn2[C@@H]1O[C@H](COP(=O)(O)OC(=O)[C@@H](N)Cc2ccc(O)cc2)[C@@H](O)[C@H]1O [Tyr-AMP, tyrosyl-AMP]
pKd (PheRS from baker’s yeast; non-cognate aa-AMP): 6.00

CC(C)[C@H](N)C(=O)OP(=O)(O)OC[C@H]1O[C@@H](n2cnc3c(N)ncnc32)[C@H](O)[C@@H]1O [Val-AMP, valyl-adenylate]
fold weaker affinity than Ile-AMP (IleRS from E. coli): This IleRS binds Val-AMP with a 150-fold weaker affinity than Ile-AMP.
